US20170226059A1, “APOE4-TARGETED THERAPUTICS THAT INCREASE SIRT1” (The Regents of the University of California, priority 2014, published 2017)
Entries after “also recorded” stand apart in the source; their conditions may differ. Where two headings read alike, the source gives them in different places.

Assays:
[1] = system: SirT1; assay: Primary AlphaLISA screening assay: SirT1 levels in N2a cells stably transfected with ApoE4; assay type: cell-based, mouse; details: for SirT1 levels (dose-response): N2A neuroblastoma cells stably transfected with ApoE4
Protocol: We have developed a primary screening assay that is HTS formatable; the assay would be done on N2a cells (mouse neuroblastoma cells) that have been stably transfected with ApoE3 and ApoE4. The cells are treated with drugs and the SirT1 levels are measured using the AlphaLISA assay that we have developed, e.g., as shown in FIG. 11. The illustrated AlphaLISA uses an antibody (Ab, E104, Abcam) that binds the C-terminus of SirT1 and is on the acceptor bead. The N-terminal Ab (D1D7, Abcam) is biotinylated and binds to the donor bead. For the primary assay the Neuro-2a (N2a) cells stably expressing similar levels of hApoE3 or hApoE4 are used. The primary assay can be done in triplicate. The N2a cells have reasonably good endogenous levels of APP thus avoiding the necessity of APP transfection. In general, for the assays N2a cells stably transfected with hApoE3 (E3) or hApoE4 (E4) are plated, e.g., at […] in 384-well plates in […] of growth medium and allowed to attached for 3 h. The E4 cells are treated with compounds overnight, E3 cells are controls. The following day, growth medium is removed and cells are lysed with AlphaLysis buffer complemented with protease and phosphatase inhibitors.
Then, the AlphaLISA assay is run and molecules that can increase or reverse the SirT1 levels in ApoE4 cells are identified. A preliminary estimate, based on the initial screening which yielded two reproducible “hits” from a set of 1000 compounds, which is a 0.2% hit-rate. […] Our initial screening was done on a small library of about 1000 compounds. The assay is translatable to a HTS format.

[2] = system: SirT1 mRNA; assay: SirT1 mRNA levels in A172 cells transfected with ApoE4 (quantitative real-time PCR); assay type: cell-based, human; details: A03 at 2 μM
Protocol: Total RNA from transfected and drug-treated cells is isolated using the High Pure RNA isolation kit (Roche) and 1 μg of RNA is reverse-transcribed. To analyze the mRNA levels of SirT1, real time PCR can be performed on first-strand cDNAs as described (Theendakara et al. (2013) Proc. Natl. Acad. Sci. USA, 10(45): 18303-18308). The real-time PCR can be performed in Light Cycler 480-384-multiwell plates (Roche). Primers for SirT1 were designed using the Roche universal probe library system and the primers were synthesized by Integrated DNA Technology. Real-time PCR can be performed in SYBR Green master mix with the corresponding primer sets. The melting curves of PCR products are monitored to ensure that a single melting curve is obtained. For analysis of the real-time PCR data, δCt values of samples are normalized to values obtained for GAPDH, which is assayed simultaneously. Relative quantification using the DeltaDelta Ct method can be adopted to calculate the relative quantity of SirT1 levels.

[3] = system: ADAM10 mRNA; assay: ADAM10 mRNA levels / transcription in A172 cells transfected with ApoE4; assay type: cell-based, human; details: A03 at 2 uM
[4] = Brain penetration after subcutaneous injection in mice; assay type: in vivo
Protocol: Pharmacokinetic (PK) analysis for CNS exposure studies can consist of a time course design to collect heparinized plasma and brains (Korfmacher et al. (2001) Rapid Commun. Mass. Spectrom. 15(5): 335-340; Mei et al. (2006) AAPS J. 8(3): E493-500; Spilman et al. (2014) Brain Res. 1551: 25-44). Five non-transgenic mice can be used for the PK studies, and 1, 2, 4, 6, and 8 hour time points taken. Following oral, and either sc or ip administration of the molecules at 10 mg/kg, plasma and brain levels of the compounds can be determined by quantitative LC/MS/MS methodology. Plasma samples can be precipitated with acetonitrile:methanol (1:1) cocktail containing an internal standard. The brain samples can be homogenized directly in ethylacetate or extracted from 5M guanidine homogenates with liquid-liquid method. The resulting supernatant can be evaporated to dryness and subjected to the LC/MS/MS analysis. For each compound 3 mice can be used for this analysis. The brain-to-plasma ratios and brain levels can then be calculated to identify the best candidate(s) for further efficacy testing.

[5] = system: sAPPα; assay: sAPPα levels in the presence of ApoE4 (AlphaLISA); assay type: cell-based; details: in the presence of ApoE4 (ApoE4-transfected cells); listed as Alaproclate
Protocol: sAPPα or sAPPβ secreted into the cellular media are determined with sAPPα or sAPPβ AlphaLISA immunoassay kits (PerkinElmer) according to the manufacturer's protocol with some modifications. The standards, blanks, and media are diluted with the buffer provided in the kit and added to the plate. During the first incubation step, the analyte is captured either by an antibody recognizing the α-secretase cleavage site at sAPPα C-terminus (clone 2B3) or the sAPPβ C-terminus, and then by a second biotin-labeled antibody specific to the N-terminal common domain of sAPP. In the second incubation step, the biotinylated anti-analyte antibody is bound to the streptavidin-coated donor beads. At the end of this reaction, the plates are read on an EnSpire Alpha 2390 multilabel plate reader equipped with the AlphaScreen module. The Aβ1-42 or 1-40 are determined from media and/or cells using Life Science's sandwich ELISA kit. The levels of Aβ are quantified from a standard curve and normalized to total cellular protein (Spilman et al. (2014) Brain Res. 1551: 25-44; Theendakara et al. (2013) Proc. Natl. Acad. Sci. USA, 10(45): 18303-18308), Tau and p-tau are determined from cell extracts by a solid phase double antibody sandwich ELISA technology designed for quantitative determination of phospho-tau (Antibodies-Online). APP and p-APP are determined by the DuoSet IC ELISA (R&D Systems) to measure phosphorylated APP in cell lysates. An immobilized capture antibody specific for APP binds both phosphorylated and unphosphorylated APP. After unbound material is washed away, a biotinylated detection antibody is used to detect either APP or phosphor-APP utilizing a standard HRP format. Using these assay procedures we notice a significant increase in p-tau and p-APP levels in ApoE4-transfected cells. It can be determined whether the primary “hits” reverse the ApoE4-mediated APP-Thr phosphorylation and tau-phosphorylation.

[6] = system: p-tau; assay: p-Tau levels in SHSY5Y; assay type: cell-based
Protocol: sAPPα or sAPPβ secreted into the cellular media are determined with sAPPα or sAPPβ AlphaLISA immunoassay kits (PerkinElmer) according to the manufacturer's protocol with some modifications. The standards, blanks, and media are diluted with the buffer provided in the kit and added to the plate. During the first incubation step, the analyte is captured either by an antibody recognizing the α-secretase cleavage site at sAPPα C-terminus (clone 2B3) or the sAPPβ C-terminus, and then by a second biotin-labeled antibody specific to the N-terminal common domain of sAPP. In the second incubation step, the biotinylated anti-analyte antibody is bound to the streptavidin-coated donor beads. At the end of this reaction, the plates are read on an EnSpire Alpha 2390 multilabel plate reader equipped with the AlphaScreen module. The Aβ1-42 or 1-40 are determined from media and/or cells using Life Science's sandwich ELISA kit. The levels of Aβ are quantified from a standard curve and normalized to total cellular protein (Spilman et al. (2014) Brain Res. 1551: 25-44; Theendakara et al. (2013) Proc. Natl. Acad. Sci. USA, 10(45): 18303-18308), Tau and p-tau are determined from cell extracts by a solid phase double antibody sandwich ELISA technology designed for quantitative determination of phospho-tau (Antibodies-Online). […]

[7] = rodents, high doses; cited from earlier work
[8] = Phase1 human trials, up to 200 mgs bid; cited from earlier work

## CC(N)C(=O)OC(C)(C)Cc1ccc(Cl)cc1 (centres unmarked) [Compound A03, 1-(4-chlorophenyl)-2-methylpropan-2-yl 2-aminopropanoate]
[1]; N2A cells stably transfected with ApoE4
  EC20 for SirT1 enhancement: 0.2 µM
[1]; N2A cells stably transfected with ApoE4, read-out: EC50 for SirT1 enhancement
  EC50: ~2 µM
[1]
  SirT1 levels (dose-response): generated a SirT1 dose-response; also recorded: SirT1 levels increasing with dose
[1]; listed as Alaproclate
  SirT1 levels (dose-response): increases
[1]; listed as alaproclate
  SirT1 levels (dose-response): increase SirT1 levels in a dose responsive manner
[2]
  mRNA levels of SirT1: normalized; also recorded: normalize the mRNA levels for SirT1
[2]; listed as Alaproclate
  mRNA levels of SirT1: increased
[3]
  ADAM10 mRNA levels / transcription: normalized; also recorded: normalization of ADAM10 transcription
[3]; listed as Alaproclate
  ADAM10 mRNA levels / transcription: increased
[4]
  brain penetration / brain permeability: excellent brain penetration
[4]; listed as alaproclate
  brain penetration / brain permeability: highly brain permeable
[4]; mouse, brain and plasma, sc, 10 mg/kg, read-out: brain/plasma (B/P)
  Kp: ~10
[5]
  sAPPα levels: increases
[6]
  p-Tau levels: decreased
[7]
  liver toxicity: observed liver toxicity
[8]
  adverse events: no observed adverse events
  global scores: some improvements in global scores
